Measurements from paper PMC11879040, “Advancing systemic toxicity risk assessment: Evaluation of a NAM-based toolbox approach” (Toxicological Sciences, 2024).
Where two headings read alike, the source gives them in different places.

Tests used:
[1] = system: human; conditions: human studies; ref [15-18]; cited from earlier work
[2] = system: Glutamate receptor ionotropic NMDA 1 non-selective, GRIN1 (r)
[3] = system: dog; conditions: ref ToxRefDB/Paul-Friedman et al. (2020)/regulatory opinions, cited from earlier work
[4] = molecular target: Glucocorticoid receptor, NR3C1 (h) (Homo sapiens, UniProt P04150); experiment: IPP NR3C1 binding (agonist radioligand); conditions: IPP screening at 10 uM; control dexamethasone
Glucocorticoid receptor, NR3C1 (h), sequence (P04150 whole entry): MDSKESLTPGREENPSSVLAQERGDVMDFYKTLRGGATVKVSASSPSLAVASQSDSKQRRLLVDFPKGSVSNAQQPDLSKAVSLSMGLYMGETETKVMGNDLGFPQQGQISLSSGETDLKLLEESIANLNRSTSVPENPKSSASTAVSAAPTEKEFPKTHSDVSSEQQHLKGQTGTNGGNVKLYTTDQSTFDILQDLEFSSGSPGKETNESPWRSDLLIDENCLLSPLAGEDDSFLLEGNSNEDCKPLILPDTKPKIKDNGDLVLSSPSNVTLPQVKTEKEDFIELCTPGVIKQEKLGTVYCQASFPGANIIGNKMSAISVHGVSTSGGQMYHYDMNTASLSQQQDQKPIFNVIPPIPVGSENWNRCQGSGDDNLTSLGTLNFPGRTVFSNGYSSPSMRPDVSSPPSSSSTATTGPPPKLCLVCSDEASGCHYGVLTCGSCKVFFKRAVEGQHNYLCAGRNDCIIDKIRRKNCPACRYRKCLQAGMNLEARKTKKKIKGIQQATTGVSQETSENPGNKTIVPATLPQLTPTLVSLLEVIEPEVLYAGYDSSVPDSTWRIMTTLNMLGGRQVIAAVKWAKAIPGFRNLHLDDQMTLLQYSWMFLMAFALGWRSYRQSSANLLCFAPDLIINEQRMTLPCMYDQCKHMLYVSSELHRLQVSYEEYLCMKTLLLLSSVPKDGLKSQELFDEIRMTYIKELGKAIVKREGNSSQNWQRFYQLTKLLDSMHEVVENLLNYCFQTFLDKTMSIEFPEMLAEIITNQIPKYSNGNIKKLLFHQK

[5] = molecular target: T1, Progesterone receptor, PGR (h) (Homo sapiens, UniProt P06401); experiment: biochemical; type: biochemical; conditions: agonist, progesterone for control
T1 sequence (P06401 1-933): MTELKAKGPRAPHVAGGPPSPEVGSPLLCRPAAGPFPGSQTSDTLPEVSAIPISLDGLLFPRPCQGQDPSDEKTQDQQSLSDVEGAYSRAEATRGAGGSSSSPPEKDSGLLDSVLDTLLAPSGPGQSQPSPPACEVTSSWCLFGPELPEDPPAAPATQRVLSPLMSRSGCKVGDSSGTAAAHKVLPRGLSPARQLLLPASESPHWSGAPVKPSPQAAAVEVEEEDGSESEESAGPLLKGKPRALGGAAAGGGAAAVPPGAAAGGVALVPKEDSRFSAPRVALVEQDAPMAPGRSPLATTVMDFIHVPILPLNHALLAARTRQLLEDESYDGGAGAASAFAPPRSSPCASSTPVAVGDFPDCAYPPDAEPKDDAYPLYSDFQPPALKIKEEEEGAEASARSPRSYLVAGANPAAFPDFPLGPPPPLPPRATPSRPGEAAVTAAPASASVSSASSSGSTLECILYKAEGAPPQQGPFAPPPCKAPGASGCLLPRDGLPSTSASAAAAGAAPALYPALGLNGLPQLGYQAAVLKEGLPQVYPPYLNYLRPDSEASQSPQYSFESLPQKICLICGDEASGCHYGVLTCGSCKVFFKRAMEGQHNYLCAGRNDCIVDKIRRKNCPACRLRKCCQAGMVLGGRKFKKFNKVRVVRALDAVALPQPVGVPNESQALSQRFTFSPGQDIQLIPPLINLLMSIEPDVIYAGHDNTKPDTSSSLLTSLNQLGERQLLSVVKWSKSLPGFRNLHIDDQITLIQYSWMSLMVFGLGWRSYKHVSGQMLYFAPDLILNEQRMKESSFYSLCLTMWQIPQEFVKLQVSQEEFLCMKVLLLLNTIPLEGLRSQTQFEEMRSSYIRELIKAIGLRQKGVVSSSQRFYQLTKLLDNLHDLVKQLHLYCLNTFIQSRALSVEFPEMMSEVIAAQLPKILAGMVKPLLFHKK

[6] = cited from earlier work
[7] = molecular target: T1, Progesterone receptor, PGR (h); experiment: IPP PGR coactivator recruitment (antagonist); type: biochemical; conditions: ligand progesterone
[8] = intestinal absorption (PBK input); type: in vitro ADME; conditions: levels L2/L3, converted from [38]
[9] = molecular target: T2, Peroxisome proliferator-activated receptor gamma, PPARG (h) (Homo sapiens, UniProt P37231); experiment: IPP PPARG coactivator recruitment (agonist); type: biochemical; conditions: 10 uM, rosiglitazone for control
T2 sequence (P37231 1-505): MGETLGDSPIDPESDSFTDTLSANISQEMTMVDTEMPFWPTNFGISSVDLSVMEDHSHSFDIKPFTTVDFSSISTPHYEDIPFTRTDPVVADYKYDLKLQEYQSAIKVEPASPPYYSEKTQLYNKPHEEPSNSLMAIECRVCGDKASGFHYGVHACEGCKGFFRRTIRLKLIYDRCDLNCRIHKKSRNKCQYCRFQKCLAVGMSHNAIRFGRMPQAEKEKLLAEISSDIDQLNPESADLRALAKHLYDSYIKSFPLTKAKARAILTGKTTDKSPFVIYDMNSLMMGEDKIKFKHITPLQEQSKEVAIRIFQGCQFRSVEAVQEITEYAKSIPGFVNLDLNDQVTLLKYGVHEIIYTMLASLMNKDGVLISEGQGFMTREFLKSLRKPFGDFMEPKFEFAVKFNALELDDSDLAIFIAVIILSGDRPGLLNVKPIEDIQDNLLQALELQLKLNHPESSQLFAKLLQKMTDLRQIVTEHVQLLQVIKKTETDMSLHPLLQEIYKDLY

[10] = molecular target: T3, Peroxisome proliferator-activated receptor alpha, PPARA (h) (Homo sapiens, UniProt Q07869); experiment: IPP PPARA coactivator recruitment (antagonist); type: biochemical; conditions: 10 uM; antagonist; ligand GW 7647
T3 sequence (Q07869 1-468): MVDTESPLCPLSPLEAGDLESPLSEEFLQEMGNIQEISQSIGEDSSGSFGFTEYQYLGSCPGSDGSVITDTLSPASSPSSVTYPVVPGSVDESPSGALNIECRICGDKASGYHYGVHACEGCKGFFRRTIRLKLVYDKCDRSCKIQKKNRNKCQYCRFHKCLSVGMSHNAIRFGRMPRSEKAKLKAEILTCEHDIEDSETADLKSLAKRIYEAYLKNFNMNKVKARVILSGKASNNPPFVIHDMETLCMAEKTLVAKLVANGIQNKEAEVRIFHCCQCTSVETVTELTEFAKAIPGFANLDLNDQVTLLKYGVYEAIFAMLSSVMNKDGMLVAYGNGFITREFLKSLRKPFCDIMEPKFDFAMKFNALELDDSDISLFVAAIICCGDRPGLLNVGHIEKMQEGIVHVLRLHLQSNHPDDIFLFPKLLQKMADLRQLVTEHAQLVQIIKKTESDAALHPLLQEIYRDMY

[11] = molecular target: T4, Thyroid hormone receptor beta, THRB (h) (Homo sapiens, UniProt P10828); experiment: IPP THRB coactivator recruitment (agonist); type: biochemical; conditions: 10 uM, T3
T4 construct: purchased Eurofins Cerep (SafetyScreen44-based IPP panel)
T4 sequence (P10828 whole entry): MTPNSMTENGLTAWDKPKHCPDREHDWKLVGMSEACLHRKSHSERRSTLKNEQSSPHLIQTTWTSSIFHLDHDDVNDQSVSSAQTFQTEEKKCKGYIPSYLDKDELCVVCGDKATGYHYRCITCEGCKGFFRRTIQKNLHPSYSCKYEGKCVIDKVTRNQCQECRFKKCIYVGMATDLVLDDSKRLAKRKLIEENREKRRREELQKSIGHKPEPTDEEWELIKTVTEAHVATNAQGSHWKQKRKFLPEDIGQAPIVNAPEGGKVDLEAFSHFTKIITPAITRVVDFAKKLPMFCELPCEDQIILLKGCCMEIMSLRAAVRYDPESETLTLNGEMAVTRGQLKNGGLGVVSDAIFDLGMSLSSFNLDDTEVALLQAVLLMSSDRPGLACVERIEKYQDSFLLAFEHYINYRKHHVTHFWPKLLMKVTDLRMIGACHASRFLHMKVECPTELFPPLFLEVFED

[12] = molecular target: T2, Peroxisome proliferator-activated receptor gamma, PPARG (h); experiment: IPP PPARG coactivator recruitment (antagonist); type: biochemical; conditions: 10 uM, ligand rosiglitazone
[13] = IPP screening at 10 uM, control CGS 19755
[14] = human, Oral 100 mg, Tablet, 27 healty male, Fasted, validation, ref Shank, R.P. et al. (2005) Epilepsy Research 63:103-112
[15] = human, Oral 200 mg, Tablet, 25 healty male, Fasted, calibration, ref Shank, R.P. et al. (2005) Epilepsy Research 63:103-112
[16] = human, Oral 400 mg, Tablet, 26 healty male, Fasted, validation, ref Shank, R.P. et al. (2005) Epilepsy Research 63:103-112
[17] = Oral 500 mg tablet, Preparation A: non-shellaced core, sugar coated, fasted, 5 healthy male, calibration, ref Hart 1975
[18] = Oral 500 mg tablet, Preparation B: shellaced core, sugar coated, fasted, 5 healthy male, calibration, ref Hart 1975
[19] = Oral 500 mg tablet, Preparation C: film-coated, fasted, 5 healthy male, calibration, ref Hart 1975
[20] = human, Oral 500 mg repeat every 12 h, 2 x 250 mg tablets (Terramycin), 4 healthy male, Fasted, measured data for day 1 and day 7, validation, ref GREEN, BROWN & CALVERT, European Journal of Clinical Pharmacology (1979) 10:245-250, cited in EPA (1987)
[21] = human, Oral 500 mg, Preparation D: tablet, film-coated (Oxytetracycline hydrochloride), 5 healthy male, Fasted, calibration, ref HART, Br. J. clin. Pharmac. (1975), 2, 277-280
[22] = human, Oral 500 mg, Preparation E: Capsule (Oxytetracycline hydrochloride), 5 healthy male, Fasted, calibration, ref HART, Br. J. clin. Pharmac. (1975), 2, 277-280

CCOP(=S)(OCC)Oc1nc(Cl)c(Cl)cc1Cl [Chlorpyrifos, O,O-Diethyl O-(3,5,6-trichloropyridin-2-yl) phosphorothioate]
NOAEL [1]: 0.1 mg/kg bw/day
Specific binding [2, 13]: 0.2%
PoD (NOAEL) ([3]; 2 years, inhibition of plasma and erythrocyte ChE): 0.01 mg/kg bw/day
Specific binding [4]: 29.4%

CC(C)(C)c1ccc(CCOc2ncnc3ccccc23)cc1 [Fenazaquin, 4-[2-(4-tert-Butylphenyl)ethoxy]quinazoline]
Specific binding [2, 13]: 0.6%

CC1(C)O[C@@H]2[C@@H](CO[C@@]3(COS(N)(=O)=O)OC(C)(C)O[C@@H]23)O1 [Topiramate, [(3aS,5aR,8aR,8bS)-2,2,7,7-Tetramethyltetrahydro-2H,3aH,7H-bis[1,3]dioxolo[4,5-b:4',5'-d]pyran-3a-yl]methyl sulfamate (non-preferred name)]
IPP screening %, Coactivator recruitment ([5]; 100 uM): 0.5%
Specific binding ([2]; IPP screening at 100 uM, control CGS 19755): -5.1%
Reported AUC0-t [6, 14]: 50540 ng·h/mL
Reported cmax [6, 14]: 1.3281 µg/mL
Reported tmax [6, 14]: 4 h
Reported AUC0-t [6, 15]: 145000 ng·h/mL
Reported cmax [6, 15]: 3.1578 µg/mL
Reported tmax [6, 15]: 3 h
Reported AUC0-t [6, 16]: 229000 ng·h/mL
Reported cmax [6, 16]: 6.5205 µg/mL
Reported tmax [6, 16]: 2 h
plasma half-life ([6]; ref not given): over 20 h
IPP screening %, Coactivator recruitment ([7]; 100 uM): 2.2%
Peff [8]: 3.75 cm/s x E-04

(4S,4aR,5S,5aR,6S,12aS)-4-(Dimethylamino)-3,5,6,10,12,12a-hexahydroxy-6-methyl-1,11-dioxo-1,4,4a,5,5a,6,11,12a-octahydrotetracene-2-carboxamide--hydrogen chloride (1/1) [Oxytetracycline hydrochloride]
IPP screening %, Coactivator recruitment [9]: -0.1%
IPP screening %, Coactivator recruitment [10]: 42.3%
Specific binding [2, 13]: 2.8%
Reported AUC0-t [6, 17]: 5731 ng·h/mL
Reported cmax [6, 17]: 1.2 µg/mL
Reported tmax [6, 17]: 2 h
Reported AUC0-t [6, 18]: 4455 ng·h/mL
Reported cmax [6, 18]: 0.88 µg/mL
Reported tmax [6, 18]: 3 h
Reported AUC0-t [6, 19]: 7198 ng·h/mL
Reported cmax [6, 19]: 1.43 µg/mL
Reported tmax [6, 19]: 3 h
Reported AUC0-t [6, 20]: 79420 ng·h/mL
Reported cmax [6, 20]: 2.25 µg/mL
Reported tmax [6, 20]: 74 h
Reported AUC0-t [6, 21]: 8279 ng·h/mL
Reported cmax [6, 21]: 1.51 µg/mL
Reported tmax [6, 21]: 2 h
Reported AUC0-t [6, 22]: 7800 ng·h/mL
Reported cmax [6, 22]: 1.45 µg/mL
Reported tmax [6, 22]: 3 h
IPP screening %, Coactivator recruitment [11]: -3.0%
PoD (NOAEL) ([3]; 12 months (dog), 24 months (rat)): 50 mg/kg bw/day
IPP screening %, Coactivator recruitment [12]: 31.2%

mixture of 2- and 3-tert-butyl-4-methoxyphenol [Butylated Hydroxyanisole]
IPP screening %, Coactivator recruitment [9]: -0.1%
IPP screening %, Coactivator recruitment [10]: 4.4%
IPP screening %, Coactivator recruitment ([5]; 10 uM): 0.1%
Specific binding [2]: 2.2%
IPP screening %, Coactivator recruitment [11]: 1.0%
IPP screening %, Coactivator recruitment ([7]; 10 uM): 4.0%
IPP screening %, Coactivator recruitment [12]: 1.4%
Specific binding [4]: -0.5%
